# Laboratory results published in US11931343B2 (ARCUS BIOSCIENCES, INC., priority 2018, dated 2024).
# Molecular target: T1, human CD73 (Homo sapiens, UniProt P21589)
# T1 sequence (P21589 27-549): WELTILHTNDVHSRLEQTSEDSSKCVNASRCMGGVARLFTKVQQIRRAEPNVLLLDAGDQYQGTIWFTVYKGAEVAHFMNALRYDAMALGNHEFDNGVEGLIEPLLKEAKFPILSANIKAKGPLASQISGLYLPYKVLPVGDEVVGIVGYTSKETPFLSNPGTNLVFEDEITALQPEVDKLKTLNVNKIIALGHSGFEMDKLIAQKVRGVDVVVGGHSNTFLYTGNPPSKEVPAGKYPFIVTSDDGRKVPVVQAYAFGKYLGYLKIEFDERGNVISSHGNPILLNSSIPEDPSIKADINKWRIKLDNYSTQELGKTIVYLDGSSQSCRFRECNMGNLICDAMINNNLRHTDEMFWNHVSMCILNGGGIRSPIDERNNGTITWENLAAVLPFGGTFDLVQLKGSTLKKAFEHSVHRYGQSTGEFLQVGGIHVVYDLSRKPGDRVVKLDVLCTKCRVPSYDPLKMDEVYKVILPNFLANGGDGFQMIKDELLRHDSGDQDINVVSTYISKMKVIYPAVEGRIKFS
# Assay: Inhibition of Ecto-5′-nucleotidase (CD73) activity in CHO-CD73 cells, phosphate release from AMP
# Assay type: cell-based
# Details: CHO-K1 cells stably transfected with human CD73; 25 μM AMP; 50 minutes, 37° C.; read-out: Potency: CD73 IC50
row,SMILES,IC50 [µM]
1,CN(C(=O)Cn1nccc1-c1cc(Cl)c2nnn(-c3ccc4cn[nH]c4c3)c2c1)c1ccccc1 [Example 187],> 1
2,N#Cc1ccc(Cn2nccc2-c2cc(Cl)c3nnn(-c4ccc5[nH]c(=O)[nH]c5c4)c3c2)cc1 [Example 188],0.1 to 1
3,O=c1[nH]c2ccc(-n3nnc4cnc(-c5ccnn5Cc5ccc(F)cn5)cc43)cc2[nH]1 [Example 189],0.1 to 1
4,O=c1[nH]c2ccc(-n3ncc4ncc(-c5ccnn5Cc5ccc(Cl)cc5Cl)cc43)cc2[nH]1 [Example 190],0.1 to 1
5,O=c1[nH]c2ccc(-n3nnc4c(F)cc(-c5ccnn5Cc5ccc(Cl)cc5F)cc43)cc2[nH]1 [Example 191],0.1 to 1
6,O=c1[nH]c2ccc(-n3nnc4c(F)cc(-c5ccnn5Cc5ccc(Cl)c(F)c5)cc43)cc2[nH]1 [Example 192],0.1 to 1
7,O=c1[nH]c2ccc(-n3nnc4cnc(-c5ccnn5Cc5ccc(Cl)cc5F)cc43)cc2[nH]1 [Example 193],0.1 to 1
8,O=c1[nH]c2ccc(-n3nnc4cnc(-c5ccnn5Cc5ccc(Cl)c(F)c5)cc43)cc2[nH]1 [Example 194],0.1 to 1
9,O=c1[nH]c2ccc(-n3nnc4c(F)cc(-c5ccnn5Cc5ccc6cn[nH]c6c5)cc43)cc2[nH]1 [Example 195],0.1 to 1
10,O=c1[nH]c2ccc(-n3nnc4cnc(-c5ccnn5-c5cccc(F)c5)cc43)cc2[nH]1 [Example 196],> 1
11,N#Cc1cccc(-n2nccc2-c2cc3c(cn2)nnn3-c2ccc3[nH]c(=O)[nH]c3c2)c1 [Example 197],> 1
12,N#Cc1cccc(-n2nccc2-c2cc(F)c3nnn(-c4ccc5[nH]c(=O)[nH]c5c4)c3c2)c1 [Example 198],> 1
13,O=c1[nH]c2ccc(-n3nnc4c(Cl)cc(-c5ccnn5Cc5ccc(F)cn5)cc43)cc2[nH]1 [Example 200],0.1 to 1
14,O=c1[nH]c2ccc(-n3nnc4c(F)cc(-c5ccnn5Cc5ccccn5)cc43)cc2[nH]1 [Example 201],> 1
15,O=c1[nH]c2ccc(-n3nnc4c(F)cc(-c5ccnn5CCOc5ccccc5)cc43)cc2[nH]1 [Example 202],> 1
16,O=c1[nH]c2ccc(-n3nnc4ccc(-c5ccnn5Cc5ccc(F)cn5)cc43)cc2[nH]1 [Example 203],0.1 to 1
17,N#Cc1ccc(Cn2nccc2-c2ccc3nnn(-c4ccc5[nH]c(=O)[nH]c5c4)c3c2)nc1 [Example 204],0.1 to 1
18,O=c1[nH]c2ccc(-n3nnc4c(F)cc(-c5ccnn5CCc5ccc(Cl)cc5)cc43)cc2[nH]1 [Example 205],> 1
19,O=c1[nH]c2ccc(-n3nnc4c(F)cc(-c5ccnn5Cc5cccnn5)cc43)cc2[nH]1 [Example 206],> 1
20,Cc1ccc(Cn2nccc2-c2cc(Cl)c3nnn(-c4ccc5[nH]c(=O)[nH]c5c4)c3c2)cc1F [Example 207],0.1 to 1
21,Cc1cc(F)ccc1Cn1nccc1-c1cc(Cl)c2nnn(-c3ccc4[nH]c(=O)[nH]c4c3)c2c1 [Example 208],0.1 to 1
22,O=c1[nH]c2ccc(-n3nnc4c(F)cc(-c5ccnn5Cc5ncccn5)cc43)cc2[nH]1 [Example 209],> 1

row,SMILES,IC50 [µM]
1,CS(=O)(=O)c1cc(Cl)ccc1Cn1nccc1-c1cc(F)c2nnn(-c3ccc4[nH]c(=O)[nH]c4c3)c2c1 [Example 210],0.1 to 1
2,N#Cc1ccc(Cn2nccc2-c2cc(F)c3nnn(-c4ccc5[nH]c(=O)[nH]c5c4)c3c2)c(C#N)c1 [Example 211],0.1 to 1
3,O=c1[nH]c2ccc(-n3nnc4c(F)cc(-c5ccnn5Cc5ccncn5)cc43)cc2[nH]1 [Example 212],> 1
4,O=c1[nH]c2ccc(-n3nnc4c(Cl)cc(-c5ccnn5-c5cccc6cccnc56)cc43)cc2[nH]1 [Example 213],> 1
5,N#Cc1ccccc1Cn1nccc1-c1cc(F)c2nnn(-c3ccc4[nH]c(=O)[nH]c4c3)c2c1 [Example 214],> 1
6,O=c1[nH]c2ccc(-n3nnc4c(F)cc(-c5ccnn5CCc5cccc(Cl)c5)cc43)cc2[nH]1 [Example 215],> 1
7,Cc1cccc(-n2nccc2-c2cc(F)c3nnn(-c4ccc5[nH]c(=O)[nH]c5c4)c3c2)c1 [Example 216],> 1
8,Cc1cccc(-n2nccc2-c2cc(Cl)c3nnn(-c4ccc5[nH]c(=O)[nH]c5c4)c3c2)c1 [Example 217],0.1 to 1
9,N#Cc1ccc(Cn2nccc2-c2cnc3c(N)nn(-c4ccc5cn[nH]c5c4)c3c2)cc1 [Example 218],0.1 to 1
10,N#Cc1ccc(Cn2nccc2-c2cnc3c(N)nn(-c4ccc5[nH]c(=O)[nH]c5c4)c3c2)cc1 [Example 219],0.1 to 1
11,COCc1ccc(Cn2nccc2-c2cc(F)c3nnn(-c4ccc5[nH]c(=O)[nH]c5c4)c3c2)cc1 [Example 220],> 1
12,O=c1[nH]c2ccc(-n3nnc4c(F)cc(-c5ccnn5CCc5ccccc5Cl)cc43)cc2[nH]1 [Example 221],> 1
13,O=c1[nH]c2ccc(-n3nnc4c(Cl)cc(-c5ccnn5-c5cccc(C(F)(F)F)c5)cc43)cc2[nH]1 [Example 222],0.1 to 1
14,O=c1[nH]c2ccc(-n3nnc4c(F)cc(-c5ccnn5Cc5ccc6[nH]ncc6c5)cc43)cc2[nH]1 [Example 223],0.1 to 1
15,Cc1ccc(Cn2nccc2-c2cc(Cl)c3nnn(-c4ccc5[nH]c(=O)[nH]c5c4)c3c2)c(F)c1 [Example 224],< 0.1
16,Cc1cc(Cl)cnc1Cn1nccc1-c1cc(Cl)c2nnn(-c3ccc4[nH]c(=O)[nH]c4c3)c2c1 [Example 225],0.1 to 1
17,Cc1cc(C)cc(-n2nccc2-c2cc(F)c3nnn(-c4ccc5[nH]c(=O)[nH]c5c4)c3c2)c1 [Example 226],0.1 to 1
18,O=c1[nH]c2ccc(-n3nnc4c(F)cc(-c5ccnn5-c5cc(Cl)cc(Cl)c5)cc43)cc2[nH]1 [Example 227],0.1 to 1
19,N#Cc1ccc(Cn2nccc2-c2cc(Cl)c3nnn(-c4ccc5[nH]c(=O)[nH]c5c4)c3c2)c(F)c1 [Example 228],< 0.1
20,O=c1[nH]c2ccc(-n3nnc4c(F)cc(-c5ccnn5Cc5cccc6c5OC(F)(F)O6)cc43)cc2[nH]1 [Example 229],> 1
21,O=c1[nH]c2ccc(-n3nnc4c(Cl)cc(-c5ccnn5Cc5ccncc5Cl)cc43)cc2[nH]1 [Example 230],0.1 to 1
22,O=c1[nH]c2ccc(-n3nnc4c(F)cc(-c5ccnn5Cc5ccc(Cl)cc5)cc43)cc2[nH]1 [Example 231],0.1 to 1

row,SMILES,IC50 [µM]
1,N#Cc1ccc(Cn2nccc2-c2cc(F)c3nnn(-c4ccc5[nH]c(=O)[nH]c5c4)c3c2)c(N2CCCC2=O)c1 [Example 232],0.1 to 1
2,O=c1[nH]c2ccc(-n3nnc4c(F)cc(-c5ccnn5Cc5ccc6c(c5)OC(F)(F)O6)cc43)cc2[nH]1 [Example 233],> 1
3,Cc1ccc(Cn2nccc2-c2cc(Cl)c3nnn(-c4ccc5[nH]c(=O)[nH]c5c4)c3c2)c(Cl)c1 [Example 234],0.1 to 1
4,N#Cc1ccc(Cn2nccc2-c2cc(F)c3nnn(-c4ccc5[nH]c(=O)[nH]c5c4)c3c2)c(Cl)c1 [Example 235],< 0.1
5,COc1cc(F)ccc1Cn1nccc1-c1cc(F)c2nnn(-c3ccc4[nH]c(=O)[nH]c4c3)c2c1 [Example 236],> 1
6,COc1cc(F)ccc1Cn1nccc1-c1cc2c(cn1)nnn2-c1ccc2[nH]c(=O)[nH]c2c1 [Example 237],> 1
7,O=c1[nH]c2ccc(-n3nnc4c(Cl)cc(-c5ccnn5Cc5ccncc5F)cc43)cc2[nH]1 [Example 238],0.1 to 1
8,N#Cc1ccc(Cn2nccc2-c2cc(F)c3nnn(-c4ccc5[nH]c(=O)[nH]c5c4)c3c2)c(F)c1 [Example 239],0.1 to 1
9,N#Cc1ccc(Cn2nccc2-c2ccc3nnn(-c4ccc5[nH]c(=O)[nH]c5c4)c3c2)c(F)c1 [Example 240],0.1 to 1
10,Cc1cc(C)cc(-n2nccc2-c2cc(Cl)c3nnn(-c4ccc5[nH]c(=O)[nH]c5c4)c3c2)c1 [Example 241],0.1 to 1
11,O=c1[nH]c2ccc(-n3nnc4c(F)cc(-c5ccnn5Cc5cccc6cn[nH]c56)cc43)cc2[nH]1 [Example 242],> 1
12,O=c1[nH]c2ccc(-n3nnc4c(F)cc(-c5ccnn5Cc5nc6ccccc6[nH]5)cc43)cc2[nH]1 [Example 243],0.1 to 1
13,Cc1ncc(Cn2nccc2-c2cc(Cl)c3nnn(-c4ccc5[nH]c(=O)[nH]c5c4)c3c2)o1 [Example 244],> 1
14,COc1ccc(Cn2nccc2-c2cc(F)c3nnn(-c4ccc5[nH]c(=O)[nH]c5c4)c3c2)c(F)c1 [Example 245],0.1 to 1
15,COc1ccc(Cn2nccc2-c2cc(F)c3nnn(-c4ccc5[nH]c(=O)[nH]c5c4)c3c2)c(Cl)c1 [Example 246],0.1 to 1
16,COc1ccc(Cn2nccc2-c2cc3c(cn2)nnn3-c2ccc3[nH]c(=O)[nH]c3c2)c(F)c1 [Example 247],0.1 to 1
17,COc1ccc(Cn2nccc2-c2cc3c(cn2)nnn3-c2ccc3[nH]c(=O)[nH]c3c2)c(Cl)c1 [Example 248],0.1 to 1
18,Cn1nccc1Cn1nccc1-c1cc(F)c2nnn(-c3ccc4[nH]c(=O)[nH]c4c3)c2c1 [Example 249],> 1
19,N#Cc1ccc(Cn2nccc2-c2cc(Cl)c3nnn(-c4ccc5[nH]c(=O)[nH]c5c4)c3c2)c(Cl)c1 [Example 250],< 0.1
20,CS(=O)(=O)Nc1cc(Cl)ccc1Cn1nccc1-c1cc(F)c2nnn(-c3ccc4[nH]c(=O)[nH]c4c3)c2c1 [Example 251],> 1
21,O=c1[nH]c2ccc(-n3nnc4c(Cl)cc(-c5ccnn5Cc5cc(F)ccc5F)cc43)cc2[nH]1 [Example 252],> 1
22,Cc1ccc(Cn2nccc2-c2cc(Cl)c3nnn(-c4ccc5[nH]c(=O)[nH]c5c4)c3c2)c(F)c1F [Example 253],0.1 to 1
